Assay [1] deals with oxytocin-induced uterine contractions. The experiment in a line: In vivo model for inhibition of oxytocin-induced uterine contractions. More on the design: species or system rat. Particulars: dose 10 mg/kg, anaesthetised DES-treated non-pregnant female rats. Here is the method: f) In vivo Model for Inhibition of Uterine Contractions
The assay evaluates the biological effect of tested compounds in an in vivo model of preterm labor, premature birth.
Non-pregnant Charles River CD (SD) BR female rats (9-10 weeks old, 200-250 g) were treated at 18 and 24 hours before the experiment with 250 μg/kg, i.p. diethylstilbestrol (DES). For the assay, the animal was anaesthetised with urethane (1.75 g/kg, i.p.) and placed on a homeothermic operating table. The trachea was isolated and cannulated with a suitable polyethylene (PE) tubing. A midline incision at the hypogastrium level was made and one uterine horn exposed, its cephalic end cannulated with a PE240 tubing and, after filling the internal cavity with 0.2 ml of sterile physiological saline, connected to a “Gemini” amplifying/recording system via a P23ID Gould Statham pressure transducer. […]
The contractile response of the uterus to oxytocin was quantified by measuring the intra-uterine pressure and the number of contractions. The effect of the reference and test compounds was evaluated by comparing pre- and post-treatment pressure values. […]
The activities of the triazole derivatives claimed in the Formula I can be assessed using the above described in vivo biological assay. […]

For assay [2], the target named is T1, hOT receptor (Homo sapiens, UniProt P30559).
T1 construct: expressed in transfected cells; host or cells: HEK293EBNA
T1 sequence (P30559 1-389): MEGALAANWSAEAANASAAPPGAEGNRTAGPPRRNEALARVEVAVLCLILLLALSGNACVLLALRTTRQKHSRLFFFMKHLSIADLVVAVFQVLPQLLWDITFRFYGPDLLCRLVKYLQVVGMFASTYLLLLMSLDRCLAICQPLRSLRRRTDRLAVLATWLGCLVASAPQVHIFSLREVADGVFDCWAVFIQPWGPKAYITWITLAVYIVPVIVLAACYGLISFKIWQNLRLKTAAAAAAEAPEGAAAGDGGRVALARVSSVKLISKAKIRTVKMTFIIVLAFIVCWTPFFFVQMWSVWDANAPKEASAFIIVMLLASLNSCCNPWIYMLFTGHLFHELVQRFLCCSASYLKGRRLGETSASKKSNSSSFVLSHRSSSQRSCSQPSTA
The experiment in a line: Inhibition of oxytocin mediated Ca2+-mobilization by FLIPR in HEK293EBNA cells expressing the hOT receptor. Format: cell-based. The following applies: OT 40 nM, fluo-4 FLIPR, read-out: Inhibition of Ca2+ mobilisation, hOT-R IC50. The text has this:
c) Functional Assay No. 1: Inhibition of Oxytocin Mediated Ca^2+-mobilization by FLIPR® (Fluorimetric Imaging Plate Reader)
The action of OT on the OT-receptor triggers a complex cascade of events in the cell which leads to an increase in the intra-cytoplasmic Ca^2+ concentration. This increase in Ca^2+ concentration results from both calcium release from the sarcoplasmic reticulum (calcium stores) into the cytoplasm and from calcium influx from the extracellular space through Ca^2+ channels. This Ca^2+ mobilization into the cytoplasm triggers the contractile machinery of the myometrial cells which leads to uterine contractions (4 and 19).
This assay allows the measurement of the inhibition of OT/OT-R mediated calcium mobilization by test compounds of formula (1).
FLIPR® is a fluorimetric imaging device using a laser (Argon-ion laser) for simultaneous illumination and reading (cooled CCD camera) of each well of a 96-well-plate, thus enabling rapid measurements on a large number of samples.
Preparing the plates: FLIPR-plates were pre-coated with PLL (Poly-L-Lysine) 10 μg/ml+0.1% gelatine to attach HEK293EBNA cells (Human Embryonic Kidney cells expressing the hOT receptor) and incubated for 30 min up to 2 days at 37° C. The cells were plated out into 96-well-plates (60000 cells/well).
Labelling with fluo-4: 50 μg of fluo-4 (Ca2+ sensitive fluorescent dye) were dissolved in 20 μl pluronic acid (20% in DMSO). The dissolved fluo-4 was then diluted in 10 ml DMEM ([…])-F12 culture medium. […]
The relative fluorescence of Fluo (λex=488 nm, λem=590 nm) is then measured by the FLIPR in presence or absence of compounds of formula (I). The fluorescence of the marker being sensitive to the amount of Ca^2+, the Ca^2+ movements can be detected. Then, it can be determined the ability of compounds of formula (I) to antagonize the oxytocin-induced intracellular Ca^2+-mobilization mediated by the oxytocin receptor.
The activities of the triazole derivatives according to formula I were assessed using the above described in vitro biological assay. […]
(In general: Calcium flux is commonly read through the fluorescence of an indicator in the cells.)

Assay [3] has as its target T2, human Oxytocin (hOT) receptor (Homo sapiens, UniProt P30559).
T2 construct: expressed in transfected cells; host or cells: HEK293EBNA (membranes)
T2 sequence (P30559 1-389): T1 sequence (P30559 1-389)
The experiment in a line: In vitro competition binding assay on hOT receptor with scintillation proximity assay ([125I]-OVTA). Particulars: inhibition of 125I-OVTA binding; membranes from HEK293EBNA cells expressing the hOT receptor; read-out: Binding Affinity hOT-R (Ki). Here is the method: a) In vitro Competition Binding Assay on hOT Receptor with Scintillation Proximity Assay (18).
This assay allows to determine the affinity of the test compounds for the human Oxytocin (hOT) receptor. Membranes from HEK293EBNA (cells expressing the hOT receptor) were suspended in buffer containing 50 mM Tris-HCl, pH 7.4, 5 mM MgCl2 and 0.1% BSA (w/v). The membranes ([…]) were mixed with 0.1 mg SPA bead coated with wheat-germ aglutinin (WGA-PVT-Polyethylene Imine beads from Amersham) and […] of the radiolabelled [^125I]-OVTA (OVTA being Omithin Vasoactive, an analogue of OT for competitive binding experiments). Non-specific binding was determined in the presence of 1 μM Oxytocin. The total assay volume was 100 μL. The plates (Corning® NBS plate) were incubated at room temperature for 30 min and counted on a Mibrobeta® plate scintillation counter. Competitive binding was performed in presence of compounds of formula (1) at the following concentrations: 30 μM, 10 μM, 1 μM, 300 nM, 100 nM 10 nM, 1 nM, 100 pM, 10 pM. The competitive binding data were analysed using the iterative, nonlinear, curve-fitting program, “Prism” (GraphPad Software, Inc).
The ability of triazole derivatives of formula (I) to inhibit the binding of ^125I-OVTA to the OT-receptor was assessed using the above described in vitro biological assay. Representative values for some example compounds are given in Table 3 where the binding affinity of the compounds is expressed by the inhibition constant (Ki; μM). From these values, it can be derived that said test compounds according to formula I do show a significant binding to the oxytocin receptor.
Background: SPA uses beads or plates that emit light when radiolabelled molecules are held near them.

This is an account of results in patent US7468385B2, “Triazoles as oxytocin antagonists” (Laboratoires Serono SA, priority 2001, dated 2008).

The structures appear in SMILES notation. pIC50, pKi: −log10 of the molar value.

Take `COc1cccc(-n2c(CCC(=O)NCc3ccccc3OC)nnc2SCc2cccc(Cl)c2)c1` [Example 1, 3-[5-[(3-chlorobenzyl)sulfanyl]-4-(3-methoxyphenyl)-4H-1,2,4-triazol-3-yl]-N-(2-methoxybenzyl)propanamide]: the “% Reduction of Uterine Contraction” value in assay [1] was 16.9 ± 5.1%. Besides, the pIC50 in assay [2] is 7.59. In addition, the pKi in assay [3] was 7.35.
Turning to `COc1ccccc1CNC(=O)CCc1nnc(SCc2cccc(C)c2)n1-c1cccc(Cl)c1` [Example 3, 3-{4-(3-chlorophenyl)-5-[(3-methylbenzyl)sulfanyl]-4H-1,2,4-triazol-3-yl}-N-(2-methoxybenzyl)propanamide], the pKi in assay [3] is 6.87.
Still for that read-out and setting: as for `COCCCn1c(CCC(=O)NCc2ccccc2OC)nnc1SCc1cccc(Cl)c1` [Example 4, 3-[5-[(3-chlorobenzyl)sulfanyl]-4-(3-methoxypropyl)-4H-1,2,4-triazol-3-yl]-N-(2-methoxybenzyl)propanamide], the figure is 6.49; as for `COc1ccccc1CNC(=O)CCc1nnc(SCc2cccc(F)c2)n1-c1ccc(C)cc1` [Example 5, 3-[5-[(3-fluorobenzyl)sulfanyl]-4-(4-methylphenyl)-4H-1,2,4-triazol-3-yl]-N-(2-methoxybenzyl)propanamide], 6.90; as for `COc1ccccc1CNC(=O)CCc1nnc(SCc2cccc(C)c2)n1Cc1ccc(C)cc1` [Example 6, N-(2-methoxybenzyl)-3-{4-(4-methylbenzyl)-5-[(3-methylbenzyl)sulfanyl]-4H-1,2,4-triazol-3-yl}propanamide], 6.61.
`COc1ccccc1CNC(=O)CCc1nnc(SCc2cccc(Cl)c2)n1-c1cccc(C)c1` [Example 8, 3-[5-[(3-chlorobenzyl)sulfanyl]-4-(3-methylphenyl)-4H-1,2,4-triazol-3-yl]-N-(2-methoxybenzyl)propanamide]: the pKi in assay [3] was 6.64.
As for `COc1ccccc1CNC(=O)CCc1nnc(SCc2ccccc2)n1-c1ccc(C)cc1` [Example 9, 3-[5-(benzylsulfanyl)-4-(4-methylphenyl)-4H-1,2,4-triazol-3-yl]-N-(2-methoxybenzyl)propanamide], in assay [3], the pKi was 6.69.
Regarding `COc1ccccc1CNC(=O)CCc1nnc(SCc2ccc(F)cc2)n1-c1cccc(Cl)c1` [Example 11, 3-{4-(3-chlorophenyl)-5-[(4-fluorobenzyl)sulfanyl]-4H-1,2,4-triazol-3-yl}-N-(2-methoxybenzyl)propanamide], the negative logarithm of the Ki (pKi) in assay [3] was 6.48.
As to `COc1ccccc1CNC(=O)CCc1nnc(SCc2ccccc2)n1-c1cccc(Cl)c1` [Example 12, 3-[5-(benzylsulfanyl)-4-(3-chlorophenyl)-4H-1,2,4-triazol-3-yl]-N-(2-methoxybenzyl)propanamide], the pKi in assay [3] is 6.36.
As for `CCCCNC(=O)CCc1nnc(SCc2cccc(Cl)c2)n1-c1cccc(Cl)c1` [Example 15, N-butyl-3-[5-[(3-chlorobenzyl)sulfanyl]-4-(3-chlorophenyl)-4H-1,2,4-triazol-3-yl]propanamide], in assay [3], the pKi was 6.61.
On to `COc1cccc(-n2c(CCC(=O)NCc3ccccc3OC)nnc2SCc2cccc(C)c2)c1` [Example 16, N-(2-methoxybenzyl)-3-{4-(3-methoxyphenyl)-5-[(3-methylbenzyl)sulfanyl]-4H-1,2,4-triazol-3-yl}propanamide], for which the pKi in assay [3] was 6.71.
As for `COc1ccccc1CNC(=O)CCCc1nnc(SCc2cccc(Cl)c2)n1-c1ccccc1` [Example 137, 4-{5-[(3-chlorobenzyl)sulfanyl]-4-phenyl-4H-1,2,4-triazol-3-yl}-N-(2-methoxybenzyl)butanamide], the pIC50 in assay [2] was 6.31. Moreover, in assay [3], the pKi is 5.59.
Take `COc1ccccc1CNC(=O)CCCCc1nnc(SCc2cccc(Cl)c2)n1-c1cccc(Cl)c1` [Example 184, 5-[5-[(3-chlorobenzyl)sulfanyl]-4-(3-chlorophenyl)-4H-1,2,4-triazol-3-yl]-N-(2-methoxybenzyl)pentanamide]: the pKi in assay [3] is 6.32.
As for `COc1ccccc1CNC(=O)CCCCc1nnc(SCc2cccc(Cl)c2)n1-c1ccccc1` [Example 185, 5-{5-[(3-chlorobenzyl)sulfanyl]-4-phenyl-4H-1,2,4-triazol-3-yl}-N-(2-methoxybenzyl)pentanamide], the pIC50 in assay [2] was 7.24. The pKi in assay [3] was 6.22.
`COc1ccccc1CNC(=O)CCCCc1nnc(SCc2cccc(C)c2)n1CCc1ccccc1` [Example 189, N-(2-methoxybenzyl)-5-[5-[(3-methylbenzyl)sulfanyl]-4-(2-phenylethyl)-4H-1,2,4-triazol-3-yl]pentanamide]: the pKi in assay [3] is 6.29.

For orientation: pIC50 means the negative decadic logarithm of the IC50, by convention in mol/L. For orientation: pKi means the negative decadic logarithm of the Ki, by convention in mol/L.
